pEC50: −log10 of the molar value. Blank lines part the entries; values can stand above or below the compound they belong to.
Legend:
[1] = target: T1, human TLR7 (Homo sapiens, UniProt Q9NYK1); assay: HEK reporter assay, HEK293 reporter cells expressing human TLR7; type: cell-based; conditions: for pEC50: HEK293 NFKB reporter cells expressing human TLR7, read-out: HEK293 hTLR7 EC50; for TLR7 activity after NHBoc modification of the dipropylamide, versus parent compound: Human HEK293 reporter cells, BZA-2 vs BZA-1, BZA-4 vs BZA-3 (FIG. 1B, 1D)
T1 construct: host or cells: HEK293 NF-kB reporter cells
T1 sequence (Q9NYK1 27-1049): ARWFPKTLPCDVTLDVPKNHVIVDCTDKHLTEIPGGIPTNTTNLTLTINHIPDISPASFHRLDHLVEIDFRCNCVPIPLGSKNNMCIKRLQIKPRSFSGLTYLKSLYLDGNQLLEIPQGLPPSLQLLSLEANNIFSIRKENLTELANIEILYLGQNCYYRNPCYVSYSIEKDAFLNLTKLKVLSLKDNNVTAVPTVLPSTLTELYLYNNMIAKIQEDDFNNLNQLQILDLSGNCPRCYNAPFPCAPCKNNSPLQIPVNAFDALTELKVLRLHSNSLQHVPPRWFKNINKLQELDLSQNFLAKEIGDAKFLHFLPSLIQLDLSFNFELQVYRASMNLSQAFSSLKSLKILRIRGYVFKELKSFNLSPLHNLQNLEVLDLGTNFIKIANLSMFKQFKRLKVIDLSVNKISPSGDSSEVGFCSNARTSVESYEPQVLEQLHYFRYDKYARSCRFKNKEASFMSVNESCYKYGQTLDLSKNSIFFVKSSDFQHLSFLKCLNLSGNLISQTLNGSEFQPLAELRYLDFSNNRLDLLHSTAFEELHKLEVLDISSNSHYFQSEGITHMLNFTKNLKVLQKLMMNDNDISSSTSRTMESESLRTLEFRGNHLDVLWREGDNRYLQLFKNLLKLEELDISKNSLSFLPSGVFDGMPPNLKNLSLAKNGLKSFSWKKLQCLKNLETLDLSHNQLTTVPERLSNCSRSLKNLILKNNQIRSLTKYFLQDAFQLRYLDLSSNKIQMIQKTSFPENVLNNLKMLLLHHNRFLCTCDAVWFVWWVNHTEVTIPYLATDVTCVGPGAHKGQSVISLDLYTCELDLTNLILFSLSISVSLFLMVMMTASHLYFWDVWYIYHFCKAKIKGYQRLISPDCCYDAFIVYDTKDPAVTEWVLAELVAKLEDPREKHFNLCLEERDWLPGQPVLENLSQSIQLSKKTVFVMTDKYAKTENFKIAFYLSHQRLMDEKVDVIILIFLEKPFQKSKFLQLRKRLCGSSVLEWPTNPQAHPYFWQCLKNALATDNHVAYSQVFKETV
Method: Each compound was characterized by mass spectrometry and shown to have the mass indicated. Activity against HEK293 NFKB reporter cells expressing human TLR7 or human TLR8 was measured according to Example 30.
(§1) HEK293 reporter cells expressing human TLR7 or human TLR8 were purchased from Invivogen and vendor protocols were followed for cellular propagation and experimentation. Briefly, cells were grown to 80-85% confluence at 5% CO2 in DMEM supplemented with 10% FBS, Zeocin, and Blasticidin. Cells were then seeded in 96-well flat plates at 4×10^4 cells/well with substrate containing HEK detection medium and immunostimulatory molecules. Activity was measured using a plate reader at 620-655 nm wavelength.

[2] = target: T2, human TLR8 (Homo sapiens, UniProt Q9NR97); assay: HEK reporter assay, HEK293 reporter cells expressing human TLR8; type: cell-based; conditions: for pEC50: HEK293 NFKB reporter cells expressing human TLR8, read-out: HEK293 hTLR8 EC50; for TLR8 activity after NHBoc modification of the dipropylamide, versus parent compound: Human HEK293 reporter cells, BZA-2 vs BZA-1, BZA-4 vs BZA-3 (FIG. 1A, 1C)
T2 construct: host or cells: HEK293 NF-kB reporter cells
T2 sequence (Q9NR97 27-1041): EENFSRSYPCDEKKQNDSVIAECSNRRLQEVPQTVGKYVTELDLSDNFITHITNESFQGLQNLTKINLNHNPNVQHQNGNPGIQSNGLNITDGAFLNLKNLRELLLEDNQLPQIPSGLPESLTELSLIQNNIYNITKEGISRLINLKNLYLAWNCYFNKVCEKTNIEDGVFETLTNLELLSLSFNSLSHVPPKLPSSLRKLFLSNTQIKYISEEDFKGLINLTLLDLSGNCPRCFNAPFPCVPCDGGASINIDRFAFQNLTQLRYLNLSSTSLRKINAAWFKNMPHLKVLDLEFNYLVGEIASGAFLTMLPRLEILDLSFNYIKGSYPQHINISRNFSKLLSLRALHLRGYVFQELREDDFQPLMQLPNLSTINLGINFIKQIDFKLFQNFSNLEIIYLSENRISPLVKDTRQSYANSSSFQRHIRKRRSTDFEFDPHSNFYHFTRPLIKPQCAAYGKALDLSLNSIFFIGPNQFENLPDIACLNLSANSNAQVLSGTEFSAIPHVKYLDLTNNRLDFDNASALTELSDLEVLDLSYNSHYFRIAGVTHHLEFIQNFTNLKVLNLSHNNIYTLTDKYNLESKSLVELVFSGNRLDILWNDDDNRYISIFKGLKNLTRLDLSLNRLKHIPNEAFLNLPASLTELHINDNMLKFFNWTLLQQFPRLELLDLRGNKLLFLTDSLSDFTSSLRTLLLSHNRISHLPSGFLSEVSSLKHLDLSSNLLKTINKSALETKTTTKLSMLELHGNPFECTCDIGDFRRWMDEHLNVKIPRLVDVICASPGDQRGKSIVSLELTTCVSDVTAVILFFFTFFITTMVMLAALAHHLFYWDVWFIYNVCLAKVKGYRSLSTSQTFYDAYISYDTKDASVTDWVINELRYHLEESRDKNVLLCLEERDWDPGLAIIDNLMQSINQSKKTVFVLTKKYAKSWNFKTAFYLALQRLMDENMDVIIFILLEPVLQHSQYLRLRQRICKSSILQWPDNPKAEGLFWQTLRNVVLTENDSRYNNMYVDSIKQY
Method: Activity against HEK293 NFKB reporter cells expressing human TLR7 or human TLR8 was measured according to Example 30.
as §1

pEC50 [1]: < 5.05
pEC50 [2]: 6.90
Structure (SMILES): CCCN(CCCNC(=O)OC(C)(C)C)C(=O)C1=Cc2ccc(C(=O)Nc3ccccc3)cc2N=C(N)C1 [8AmBza-9, tert-butyl (3-(2-amino-8-(phenylcarbamoyl)-N-propyl-3H-benzo [b]azepine-4-carboxamido)propyl)carbamate]

pEC50 [1]: < 5.05
pEC50 [2]: 6.61
Structure (SMILES): CCCN(CCC(F)(F)F)C(=O)C1=Cc2ccc(C(=O)Nc3ccccc3)cc2N=C(N)C1 [8AmBza-14]

pEC50 [1]: < 5.05
pEC50 [2]: 5.25
Structure (SMILES): CCCN(OCC)C(=O)C1=Cc2ccc(C(=O)Nc3ccc(N4CCC(C(=O)NCCN)CC4)nc3)cc2N=C(N)C1 [8AmBza-18, 2-amino-N8-[6-[4-(2-aminoethylcarbamoyl)-1-piperidyl]-3-pyridyl]-N4-ethoxy-N4-propyl-3H-1-benzazepine-4,8-dicarboxamide]

pEC50 [2]: 5.66
Structure (SMILES): CCCN(CCC)C(=O)C1=Cc2ccc(C(=O)Nc3cnc4c(c3)CNCC4)cc2N=C(N)C1 [8AmBza-19]

pEC50 [1]: < 5.05
Structure (SMILES): CCCN(CCC)C(=O)C1=Cc2ccc(C(=O)Nc3cncc(CNC(=O)CN)c3)cc2N=C(N)C1 [8AmBza-21]

pEC50 [1]: < 5.05
pEC50 [2]: < 5.05
Structure (SMILES): CCCN(CCC)C(=O)C1=Cc2ccc(C(=O)Nc3cncc(CNC(=O)CNC(=O)OC(C)(C)C)c3)cc2N=C(NC(=O)OC(C)(C)C)C1 [8AmBza-22]

The next lines start with the compound.

Structure (SMILES): CCCN(CCCNC(=O)OC(C)(C)C)C(=O)C1=Cc2ccc(C(=O)Nc3cnc(NCCNC(=O)OC(C)(C)C)nc3)cc2N=C(N)C1 [8AmBza-7, tert-butyl N-[3-[[2-amino-8-[[2-[2-(tert-butoxycarbonylamino)ethylamino]pyrimidin-5-yl]carbamoyl]-3H-1-benzazepine-4-carbonyl]-propyl-amino]propyl]carbamate]
pEC50 [1]: < 5.05
pEC50 [2]: 5.75

Structure (SMILES): CCCN(CCCNC(=O)OC(C)(C)C)C(=O)C1=Cc2ccc(C(=O)Nc3cccc(COCCOCCNC(=O)OC(C)(C)C)c3)cc2N=C(N)C1 [8AmBza-8, tert-butyl N-[3-[[2-amino-8-[[3-[2-[2-(tert-butoxycarbonylamino)ethoxy]ethoxymethyl]phenyl]carbamoyl]-3H-1-benzazepine-4-carbonyl]-propyl-amino]propyl]carbamate]
pEC50 [1]: < 5.05
pEC50 [2]: 6.06

Structure (SMILES): CCCN(OCC)C(=O)C1=Cc2ccc(C(=O)Nc3ccccc3)cc2N=C(N)C1 [8AmBza-15]
pEC50 [1]: 5.31
pEC50 [2]: 7.47

Structure (SMILES): CCCN(Cc1ccc(CN)cc1)C(=O)C1=Cc2ccc(C(=O)Nc3ccccc3)cc2N=C(N)C1 [8AmBza-16]
pEC50 [1]: < 5.05
pEC50 [2]: 7.11

Structure (SMILES): CCCN(Cc1ccc(CNC(=O)OC(C)(C)C)cc1)C(=O)C1=Cc2ccc(C(=O)Nc3ccccc3)cc2N=C(N)C1 [8AmBza-17]
pEC50 [1]: < 5.05
pEC50 [2]: 6.11

Structure (SMILES): CCCN(CCC)C(=O)C1=Cc2ccc(C(=O)Nc3cnc4c(c3)CN(C(=O)OC(C)(C)C)CC4)cc2N=C(NC(=O)OC(C)(C)C)C1 [8AmBza-20]
pEC50 [1]: 5.09
pEC50 [2]: 5.22

Structure (SMILES): CCCN(CCCNC(=O)OC(C)(C)C)C(=O)C1=Cc2ccc(-c3cccc(S(=O)(=O)N4CC(CO)C4)c3)cc2N=C(N)C1 [BZA-2, tert-butyl (3-(2-amino-8-(3-((3-(hydroxymethyl)azetidin-1-yl)sulfonyl)phenyl)-N-propyl-3H-benzo[b]azepine-4-carboxamido)propyl)carbamate, reference compound]
TLR7 activity after NHBoc modification of the dipropylamide, versus parent compound [1]: significantly increasing TLR7 activity
TLR8 activity after NHBoc modification of the dipropylamide, versus parent compound [2]: minimally perturbs TLR8 activity

Structure (SMILES): CCCN(CCCNC(=O)OC(C)(C)C)C(=O)C1=Cc2ccc(NC(=O)c3ccccc3)cc2N=C(N)C1 [BZA-4, tert-butyl (3-(2-amino-8-benzamido-N-propyl-3H-benzo[b]azepine-4-carboxamido)propyl)carbamate, reference compound]
TLR7 activity after NHBoc modification of the dipropylamide, versus parent compound [1]: increases TLR 7 activity
TLR8 activity after NHBoc modification of the dipropylamide, versus parent compound [2]: does not affect TLR 8 activity

Source: patent US20220347310A1, “AMIDE-LINKED, AMINOBENZAZEPINE IMMUNOCONJUGATES, AND USES THEREOF” (BOLT BIOTHERAPEUTICS, INC., priority 2019, published 2022)
